No end group written: not given here.
How the values were obtained:
Format in all cases: biochemical
[1] = test system: B-phycoerythrin from Porphyrium cruentum; assay: peroxy free radical trapping test (protection of B-phycoerythrin from destruction by peroxy free radicals); settings: B-phycoerythrin 10 nM, 2,2'-azobis-2-methylpropionamidine 500 μM, 37° C.; peptide 20 nM to 20 μM
Procedure: The ability of peptides to protect the globular protein B-phycoerythrin from destruction by peroxy free radicals was tested. This was done by oxidizing B-phycoerythrin from Porphyrium cruentum (10 nM) in phosphate-buffered saline solution using 2,2′-azobis-2-methylpropionamidine (500 μM) at 37° C. as source of peroxy free radicals. Destruction of the protein was measured by observing the decrease in the protein fluorescence with increasing incubation time (flash fluorimetry, excitation window 340±50 nm, emission window 572±6 nm) . The results of this experiment for the secretory peptides GnRH (human) and for the synthetic peptides WY, WGGGY, WW and YY are shown in FIG. 1A. The meanings in the individual diagrams are • the control and ⋄ a concentration of 20 nM, ∘ 200 nM, ▾ 2 μM and ∇ 20 μM of the particular peptide (quadruplicate determinations) .
The results are shown in FIG. 2. • means the control, ∘ means a concentration of 200 nM, ▾ means a concentration of 2 μM and ∇ means a concentration of 20 μM of the particular peptide (quadruplicate determinations).
Experiments were carried out to test the antioxidant effect of other substances in the peroxy free radical trapping test described in example 1. The results are shown in FIG. 3 (see FIG. 1A for explanation) .

[2] = test system: human LDL; assay: protection of LDL from copper-catalyzed oxidation (conjugated dienes, 234 nm); settings: LDL 0.1 mg/ml protein, 10 μM CuSO4, 37° C.; peptide 20 μM and 100 μM
Procedure: In a further test, the ability of the peptides to protect LDL from copper-catalyzed oxidation was tested. This was done by incubating fresh human LDL (0.1 mg/ml protein) with 10 μM CuSO4 at 37° C. The reaction products of the LDL decomposition (conjugated dienes) were measured by photometry at 234 nm as described by Moosmann and Behl (Proc. Natl. Acad. Sci. USA 96 (1999), 8867). The three curves show the control, a concentration of 20 μM and a concentration of 100 μM of the particular peptide (duplicate determinations).

[3] = test system: native rat brain membranes; assay: protection of brain membranes from oxidative damage by ascorbate (lipid peroxidation, chemiluminescence); settings: membranes 0.5 mg/ml protein, 50 μM ascorbate, 37° C.; peptide 20 μM and 100 μM
Procedure: Secretory peptides are able to protect brain membranes from oxidative damage by ascorbate. This was done by oxidizing native rat brain membranes (0.5 mg/ml protein) by adding 50 μM ascorbate at 37° C. Single-photon measurement of the chemiluminescence (as measure of peroxidation reactions occurring) was measured for quantitative determination of the lipid peroxidation as described by Moosmann and Behl (supra). The results for GnRH (human) are shown in FIG. 1C. • means the control and ⋄ a concentration of 20 μM and ▪ a concentration of 100 μM of the particular peptide (duplicate determinations).

Substance	antioxidant effect in trapping peroxy free radicals (decrease in B-phycoerythrin fluorescence) [1]	antioxidant effect in preventing LDL oxidation [2]	antioxidant effect in preventing peroxidation of brain lipids [3]
LRPG-amide (LRPG-NH2; listed as Homo sapiens) [GnRH 7-10]	complete loss of activity		
WGGY (A synthetic peptide which functions as an antioxidant)	Analogous results		
cyEHWSYGLRPG-amide (N-terminal pyroglutamate, C-terminal amide; listed as Homo Sapiens) [GnRH (human)]	have antioxidant properties	have antioxidant properties	have antioxidant properties
cyEHWSYGWLPG-amide (HELM PEPTIDE1{[Glp].H.W.S.Y.G.W.L.P.G.[am]}$$$$V2.0; SMILES CC(C)C[C@H](NC(=O)[C@H](Cc1c[nH]c2ccccc12)NC(=O)CNC(=O)[C@H](Cc1ccc(O)cc1)NC(=O)[C@H](CO)NC(=O)[C@H](Cc1c[nH]c2ccccc12)NC(=O)[C@H](Cc1c[nH]cn1)NC(=O)[C@@H]1CCC(=O)N1)C(=O)N1CCC[C@H]1C(=O)NCC(N)=O; listed as Oncorhynchus tshawytscha) [GnRH (salmon)]	Analogous results		
SYGLRPG-amide (SYGLRPG-NH2; listed as Homo sapiens) [GnRH 4-10]	markedly reduced		
WGY	Analogous results		
cyEHWSHDWKPG-amide (N-terminal pyroglutamate, C-terminal amide; listed as Petromyzon marinus) [GnRH (lamprey)]	Analogous results		

From US8232243B2, “Tyrosine- and tryptophan-containing peptides as antioxidants” (Max-Planck-Gesellschaft zur Forderung der Wissenschaften …, priority 1999, dated 2012)
